Data on four compounds can be found in publication PMC6539495, “Anti-Cancer Activity of Novel Dihydrotestosterone-Derived Ring A-Condensed Pyrazoles on Androgen Non-Responsive Prostate Cancer Cell Lines” (International Journal of Molecular Sciences, 2019).

Read-outs that look alike come from different tables or passages of the source.

One data set concerns MCF-7 cells. The experiment in a line: MTT cell viability assay on MCF-7 breast cancer cells. The format is cell-based, human. Conditions: for Mean values (%) of primary growth inhibitory screen (viability in %), MCF-7: 72 hours.
Data set [1] relates to DU 145 cells. The experiment in a line: MTT cell viability assay on DU 145 prostate cancer cells. The format is cell-based, human. The conditions noted are these: for Mean values (%) of primary growth inhibitory screen (viability in %), DU 145: 72 hours.
In another data set the test system is HeLa cells. Kind of data set: MTT cell viability assay on HeLa cervical cancer cells. Conditions: 72 hours. The format is cell-based, human.
Another data set deals with MDA-MB-231 cells. The experiment in a line: MTT cell viability assay on MDA-MB-231 breast cancer cells. The conditions noted are these: for Mean values (%) of primary growth inhibitory screen (viability in %), MDA-MB-231: 72 hours. The format is cell-based, human.
Data set [2] concerns MRC-5 cells. Kind of data set: MTT cell viability assay on non-cancerous MRC-5 fibroblasts. The conditions noted are these: 72 hours, MTT. The data set is classed as cell-based.
In data set [3] the test system is PC-3 cells. The experiment in a line: MTT cell viability assay on PC-3 prostate cancer cells. The data set is classed as cell-based, human.
Data set [4] can be described thus: Solubility in DMSO for pharmacological studies. The data set is classed as physicochemical. The conditions noted are these: final concentration of 5 mM. The procedure:
To perform pharmacological studies, the synthesized DHT derivatives were dissolved in DMSO (dimethyl sulfoxide) in a final concentration of 5 mM. One compound (5h) was non-soluble in the applied solvent, thus was excluded from the pharmacological evaluations. […] For this, PC-3 and DU 145 prostate cancer cells, MCF-7 and MDA-MB-231 breast cancer cells, HeLa cervical cancer cells and non-cancerous MRC-5 fibroblasts were used. […] On the heat map representing viability results following treatments with DHT derivatives at 30 µM concentration a remarkable structure–function relationship can be recognized (Figure 3).

The test system of data set [5] is caspase 3 mRNA in PC-3 cells. Kind of data set: RT-qPCR of caspase 3 mRNA. The format is cell-based, human. The conditions noted are these: PC-3, 48 h; 4e, 4j 5 µM; cisplatin 200 µM; GAPDH reference. Here is the method:
(§1) PC-3 cells were seeded at 2 × 10^6 cells/well density in 6 well plates. On the following day cells were treated with 5 µM of either compound 4e or 4j or with 200 µM of cisplatin. Cells were collected 48-hours post-treatment and total cellular RNA was isolated using RNeasy® Mini Kit (QIAGEN, Hilden, Germany) according to the manufacturer’s recommendation. RNA (2 µg) was reverse transcribed (TaqMan® Reverse Transcription kit, Applied Biosystems, Foster City, CA, USA) in 50 µL total volume. PCR reactions were performed on PicoReal™ Real-time PCR (Thermo Scientific, Walthan, MA, USA) using SYBRGreen qPCR Master Mix (Thermo Scientific) with an input of 1 µL cDNA. Each primer (Table 3) was used at 200 nM concentration. Relative transcript levels were determined by the ΔΔCt analysis using GAPDH as reference gene. Experiments were repeated three times with three biological replicates.

The test system of data set [6] is MRC-5 cells. Set-up: method as in PMID 28595942. The conditions noted are these: assessed previously; cited from earlier work.
The subject of data set [7] is PC-3 cells. The experiment in a line: Annexin V/PI apoptosis detection assay (flow cytometry). The data set is classed as cell-based, human. The conditions noted are these: PC-3, 200 µM cisplatin, 48 h. The procedure:
PC-3 cells were seeded at 2 × 10^6 cells/well density in 6-well plates. On the following day cells were treated with 5 µM of either compound 4e or 4j or with 200 µM of cisplatin (Accord Healthcare Ltd., Middlesex, UK). After 48-hour treatment, cells were collected and a Dead Cell Apoptosis Kit containing AnnexinV-FITC and propidium iodide (Life Technologies-Hungary, Budapest, Hungary) was used according to the manufacturer’s recommendation. Fluorescence intensities of at least 10,000 cells/sample were measured by FACSCalibur™ (BD Biosciences, Franklin Lakes, CA, USA) and data were analyzed by FlowJo V10 software (BD Biosciences, Franklin Lakes, NJ, USA). Experiments were repeated three times using triplicates.

The next data set concerns Bax mRNA in PC-3 cells. Kind of data set: RT-qPCR of Bax mRNA. The data set is classed as cell-based, human. The conditions noted are these: PC-3, 48 h; 4e, 4j 5 µM; cisplatin 200 µM; GAPDH reference. The procedure: as §1
Data set [8] relates to PC-3 cells. Details: method as in PMID 28595942. Conditions: assessed previously; cited from earlier work.
The subject of data set [9] is DU 145 cells. Details: method as in PMID 28595942. Conditions: assessed previously; cited from earlier work.

Take `Cc1c2c(nn1-c1ccccc1)CC1CCC3C4CCC(O)C4(C)CCC3C1(C)C2` (stereo not drawn) [4a, 17β-Hydroxy-1′-phenyl-5′-methylpyrazolo[3′,4′:3,2]-5α-androstane]: the melting point was 241 to 245 °C. The “Mean values (%) of primary growth inhibitory screen (viability in %), MCF-7” value in the data set with MCF-7 cells (10 µM) stood at 57.1%. Also, the “Mean values (%) of primary growth inhibitory screen (viability in %), MCF-7” value with MCF-7 cells (30 µM) is on record as 5.5%. In addition, the IC50 with MCF-7 cells (Homo sapiens, MCF7, 72 hours, ± SD) was 12.9 ± 0.1 µM. In addition, the “Mean values (%) of primary growth inhibitory screen (viability in %), DU 145” value with DU 145 cells [1] (10 µM) stood at 67.3%. Further, the “Mean values (%) of primary growth inhibitory screen (viability in %), DU 145” value in the data set with DU 145 cells [1] (30 µM) was found to be 1.5%. Also, in the data set on DU 145 cells [1] (Homo sapiens, DU-145, 72 hours, ± SD), the IC50 was determined as 9.2 ± 1.2 µM. Besides, the “Mean values (%) of primary growth inhibitory screen (viability in %), HeLa” value in the data set with HeLa cells (10 µM) amounted to 49.6%. In the data set on HeLa cells (30 µM), the “Mean values (%) of primary growth inhibitory screen (viability in %), HeLa” value is 46.7%. In the data set with HeLa cells (Homo sapiens, HeLa, ± SD), the IC50 was 16.9 ± 3.7 µM. For the same compound, in the data set on MDA-MB-231 cells (10 µM), the “Mean values (%) of primary growth inhibitory screen (viability in %), MDA-MB-231” value is 75.0%. In addition, in the data set with MDA-MB-231 cells (30 µM), the “Mean values (%) of primary growth inhibitory screen (viability in %), MDA-MB-231” value was determined as 32.1%. Further, the IC50 in the data set with MDA-MB-231 cells (Homo sapiens, MDA-MB-231, 72 hours, ± SD) worked out at 15.3 ± 3.4 µM. Besides, in the data set on MRC-5 cells [2] (10 µM), the “Mean values (%) of primary growth inhibitory screen (viability in %), MRC-5” value is 68.3%. Also, the “Mean values (%) of primary growth inhibitory screen (viability in %), MRC-5” value in the data set on MRC-5 cells [2] (30 µM) was found to be 1.2%. The IC50 in the data set with MRC-5 cells [2] (Homo sapiens, MRC5, ± SD) turned out to be 23.7 ± 2.3 µM. In addition, in the data set with PC-3 cells [3] (10 µM, 72 hours, MTT), the “Mean values (%) of primary growth inhibitory screen (viability in %), PC-3” value was determined as 36.8%. In addition, in the data set on PC-3 cells [3] (10 µM, primary screen), the “antiproliferative potency against PC-3 prostate cancer cells compared to MRC-5 non-cancerous fibroblasts” value is “significantly higher”. Besides, the “Mean values (%) of primary growth inhibitory screen (viability in %), PC-3” value in the data set with PC-3 cells [3] (30 µM, 72 hours, MTT) turned out to be 3.2%. In addition, the IC50 in the data set with PC-3 cells [3] (Homo sapiens, PC-3, MTT, 72 hours, ± SD) came to 5.6 ± 1.2 µM.

Regarding `Cc1c2c(nn1-c1ccccc1)C[C@@H]1CC[C@@H]3[C@H](CC[C@]4(C)C(=O)CC[C@@H]34)[C@@]1(C)C2` [5a, 1′-Phenyl-5′-methylpyrazolo[3′,4′:3,2]-5α-androst-17-one], the melting point lay within 247 to 250 °C. Also, the “Mean values (%) of primary growth inhibitory screen (viability in %), MCF-7” value with MCF-7 cells (10 µM) is 73.3%. In addition, the “Mean values (%) of primary growth inhibitory screen (viability in %), MCF-7” value with MCF-7 cells (30 µM) is 7.5%. Besides, the “Mean values (%) of primary growth inhibitory screen (viability in %), DU 145” value in the data set on DU 145 cells [1] (10 µM) came to 80.1%. For the same compound, in the data set with DU 145 cells [1] (30 µM), the “Mean values (%) of primary growth inhibitory screen (viability in %), DU 145” value worked out at 4.0%. For the same compound, in the data set on HeLa cells (10 µM), the “Mean values (%) of primary growth inhibitory screen (viability in %), HeLa” value is on record as 70.5%. In addition, the “Mean values (%) of primary growth inhibitory screen (viability in %), HeLa” value in the data set with HeLa cells (30 µM) was determined as 26.2%. For the same compound, the “Mean values (%) of primary growth inhibitory screen (viability in %), MDA-MB-231” value in the data set with MDA-MB-231 cells (10 µM) is 85.0%. For the same compound, the “Mean values (%) of primary growth inhibitory screen (viability in %), MDA-MB-231” value in the data set with MDA-MB-231 cells (30 µM) worked out at 15.2%. Further, the “Mean values (%) of primary growth inhibitory screen (viability in %), MRC-5” value with MRC-5 cells [2] (10 µM) amounted to 78.0%. For the same compound, the “Mean values (%) of primary growth inhibitory screen (viability in %), MRC-5” value in the data set with MRC-5 cells [2] (30 µM) was 3.9%. Besides, the “Mean values (%) of primary growth inhibitory screen (viability in %), PC-3” value in the data set with PC-3 cells [3] (10 µM, 72 hours, MTT) came to 47.7%. Moreover, the “Mean values (%) of primary growth inhibitory screen (viability in %), PC-3” value with PC-3 cells [3] (30 µM, 72 hours, MTT) was found to be 7.6%.

Consider `Cc1c2c(nn1-c1ccc(Br)cc1)CC1CCC3C4CCC(=O)C4(C)CCC3C1(C)C2` (stereo not drawn) [5h, 1′-(4″-Bromophenyl)-5′-methylpyrazolo[3′,4′:3,2]-5α-androst-17-one], for which the “solubility in the applied solvent (DMSO)” value in [4] is on record as “non-soluble”.

For the compound `N.N.[Cl][Pt][Cl]` [cisplatin, reference compound], the “caspase 3 mRNA expression level compared to untreated control” value in data set [5] is “significantly increased”. For the same compound, the IC50 is 237.3 ± 1.16 µM with MRC-5 cells [6], 230.9 ± 1.37 µM in the data set on PC-3 cells [8] and 126.8 ± 1.18 µM with DU 145 cells [9]. The “apoptosis induction (annexin V/PI), in words” value with PC-3 cells [7] is on record as “prominent apoptosis”. The “Bax mRNA expression level compared to untreated control” value with Bax mRNA in PC-3 cells is “significantly increased”.
